Data reported in patent publication US20190151210A1, “METHOD AND COMPOSITION FOR TREATING SKIN CONDITIONS” (L'OREAL, priority 2016, published 2019).
Where “and” joins values, the source holds several entries; their conditions need not be identical. Equal values may be shown once.

Experiment: solubility of active ingredients in base oil composition
Format: physicochemical
Conditions: for Loading (wt %), soluble in base oil composition: loading not marked with *
Excerpt: The booster compositions described above include the active ingredients noted specifically for the categorical skin condition (e.g., skin brightness, skin wrinkles, visibility of pores, skin texture, and/or skin redness). In addition, the compositions cosolubilize to permit easy dispersion of the booster composition into the base oil composition. In addition to easy dispersion, the system according to the present disclosure ensures rapid homogeneity of the final products after combination of booster and base components by the consumer. In each of the booster compositions, at least one of the ingredients in the base oil composition are included in the booster compositions. For example, in one embodiment, squalane is included in each of the booster compositions. In one particularly advantageous embodiment, greater than about 20% or greater than about 25% or greater than about 30% or greater than about 35%, by weight of total composition squalane is included in each of the booster compositions. Visual assessment may be conducted to ensure cosolubility. For example, cosolubility may be determined by visual determination of incompatibility, immicible components, precipitates or other visual indicators indicating a lack of cosolubility.

Loading (wt %), soluble in base oil composition | Loading (wt %), insoluble in base oil composition (loading marked * = Insoluble) | Compound
5% wt % and 10% wt % and 15% wt % |  | CC(c1ccccc1)c1ccc(O)cc1O (stereo not shown) [Phenylethyl Resorcinol]
40% wt % and 50% wt % and 60% wt % |  | CCCCCCCCC(CCCCCC)C(=O)OC[C@H](OC(=O)C(CCCCCC)CCCCCCCC)[C@H]1OC(=O)C(OC(=O)C(CCCCCC)CCCCCCCC)=C1OC(=O)C(CCCCCC)CCCCCCCC (stereo partly shown) [Ascorbyl Tetraisopalmitate]
3% wt % | 5%* wt % and 10%* wt % and 15%* wt % | O=C(O)c1ccccc1O [Salicylic Acid]
